Non-standard residues stand in square brackets, D forms with d. Residues, ends and D or L forms follow the SMILES beside them. *: point of attachment. Tyr(Nα-amidino) = N=C(N)N[C@@H](Cc1ccc(O)cc1)C(=O)*; dNle = CCCC[C@@H](N)C(=O)O
How the values were obtained:
Assay type in all cases: cell-based
guinea-pig ileum (GPI) [1] = assay: GPI assay according to Kosterlitz and Watt (opiate activity); settings: guinea-pig ileum preparation; assay of Kosterlitz and Watt 1968; relative to normorphine = 1.0
Text: (§1) 39, 398 (1970)] and in mouse ves deferens (MVD) preparations [J. Hughes et al.: Br. J. Pharmacol. 53, 371 (1975)]. […] The figures represent the activities of compounds relative to […] (the activity of normorphine is taken as unity=1.0).
^a GPI assay according to Kosterlitz and Watt [Br.J. Pharmacol. 33,

guinea-pig ileum (GPI) [2] = assay: GPI assay according to Kosterlitz et al. (opiate activity); settings: guinea-pig ileum preparation; assay of Kosterlitz et al. 1970; relative to normorphine = 1.0
Text: as §1
^b GPI assay according to Kosterlitz et al. [Br. J. Pharmacol. 39, 39

mouse vas deferens (MVD) = assay: MVD assay according to Hughes et al. (opiate activity); settings: mouse vas deferens preparation; assay of Hughes et al. 1975; relative to normorphine = 1.0
Text: as §1
^c MVD assay according to Hughes et al. [Br. J. Pharmacol. 53, 371

Compound	Opiate activity GPI^a (opiate activity of normorphine = 1.0) (guinea-pig ileum (GPI) [1])	Opiate activity GPI^b (opiate activity of normorphine = 1.0) (guinea-pig ileum (GPI) [2])	Opiate activity MVD^c (opiate activity of normorphine = 1.0) (mouse vas deferens (MVD))
CC(=O)O.CCCC[C@@H](NC(=O)[C@@H](N)Cc1ccc(O)cc1)C(=O)NCC(=O)N[C@@H](Cc1ccccc1)C(N)=O.O [H-Tyr-D-Nle-Gly-Phe-NH2, L-Tyrosyl-D-norleucyl-glycyl-L-phenylalanine amide acetate hydrate] (H-Y[dNle]GF-NH2)	22	22	8
CC(=O)O.CSCC[C@@H](NC(=O)[C@@H](N)Cc1ccc(O)cc1)C(=O)NCC(=O)N[C@@H](Cc1ccccc1)C(N)=O.O [H-Tyr-D-Met-Gly-Phe-NH2, L-Tyrosyl-D-methionyl-glycyl-L-phenylalanine amide acetate hydrate] (H-Y[dM]GF-NH2)	17	17	4
CSCC[C@@H](NC(=O)[C@H](Cc1ccc(O)cc1)NC(=N)N)C(=O)NCC(=O)N[C@@H](Cc1ccccc1)C(=O)N1CCC[C@H]1C(N)=O [H2 N-C-(NH)-Tyr-D-Met-Gly-Phe-Pro-NH2, amidino-L-tyrosyl-D-methionyl-glycyl-L-phenylalanyl-L-proline amide] ({Tyr(Nα-amidino)}-[dM]GFP-NH2)	825	173	25
CC(=O)O.CCCC[C@@H](NC(=O)[C@@H](N)Cc1ccc(O)cc1)C(=O)NCC(=O)N[C@@H](Cc1ccccc1)C(=O)N1CCC[C@H]1C(N)=O.O [H-Tyr-D-Nle-Gly-Phe-Pro-NH2, L-Tyrosyl-D-norleucyl-glycyl-L-phenylalanyl-L-proline amide acetate hydrate] (H-Y[dNle]GFP-NH2)	12	12	10
CC(=O)O.CSCC[C@@H](NC(=O)[C@@H](N)Cc1ccc(O)cc1)C(=O)NCC(=O)N[C@@H](Cc1ccccc1)C(=O)N1CCC[C@H]1C(N)=O.O.O.O [H-Tyr-D-Met-Gly-Phe-Pro-NH2, L-tyrosyl-D-methionyl-glycyl-L-phenylalanyl-proline amide acetate trihydrate] (H-Y[dM]GFP-NH2)	8	8	8
CCCC[C@@H](NC(=O)[C@H](Cc1ccc(O)cc1)NC(=N)N)C(=O)NCC(=O)N[C@@H](Cc1ccccc1)C(=O)N1CCC[C@H]1C(N)=O [H2 N-C-(NH)-Tyr-D-Nle-Gly-Phe-Pro-NH2, amidino-L-tyrosyl-D-norleucyl-glycyl-L-phenylalanyl-L-proline amide] ({Tyr(Nα-amidino)}-[dNle]GFP-NH2)	79	21	17
CCCC[C@@H](NC(=O)[C@H](Cc1ccc(O)cc1)NC(=N)N)C(=O)NCC(=O)N[C@@H](Cc1ccccc1)C(N)=O [H2 N-C-(NH)-Tyr-D-Nle-Gly-Phe-NH2, amidino-L-tyrosyl-D-norleucyl-glycyl-L-phenylalanine amide]	126	79	18
CSCC[C@@H](NC(=O)[C@H](Cc1ccc(O)cc1)NC(=N)N)C(=O)NCC(=O)N[C@@H](Cc1ccccc1)C(N)=O [H2 N-C-(NH)-Tyr-D-Met-Gly-Phe-NH2, amidino-L-tyrosyl-D-methionyl-glycyl-L-phenylalanine amide]	211	79	21

Source: patent US4288432A, “Novel enkephalin analogs and process for the preparation thereof” (Richter Gedeon Vegyeszeti Gyar Rt., priority 1979, dated 1981)
